Key:
[1] = biological target: T1, MAP/microtubule affinity-regulating kinase 4 (Mus musculus, UniProt Q8CIP4); experiment: Inhibition of MARK4 in mouse cortical neurons assessed as inhibition of okadaic acid-induced tau phosphorylation at S262 residue preincubated for 15 mins followed okadaic acid challenge for 1.5 hrs by immunostaining method
T1 sequence (Q8CIP4 whole entry): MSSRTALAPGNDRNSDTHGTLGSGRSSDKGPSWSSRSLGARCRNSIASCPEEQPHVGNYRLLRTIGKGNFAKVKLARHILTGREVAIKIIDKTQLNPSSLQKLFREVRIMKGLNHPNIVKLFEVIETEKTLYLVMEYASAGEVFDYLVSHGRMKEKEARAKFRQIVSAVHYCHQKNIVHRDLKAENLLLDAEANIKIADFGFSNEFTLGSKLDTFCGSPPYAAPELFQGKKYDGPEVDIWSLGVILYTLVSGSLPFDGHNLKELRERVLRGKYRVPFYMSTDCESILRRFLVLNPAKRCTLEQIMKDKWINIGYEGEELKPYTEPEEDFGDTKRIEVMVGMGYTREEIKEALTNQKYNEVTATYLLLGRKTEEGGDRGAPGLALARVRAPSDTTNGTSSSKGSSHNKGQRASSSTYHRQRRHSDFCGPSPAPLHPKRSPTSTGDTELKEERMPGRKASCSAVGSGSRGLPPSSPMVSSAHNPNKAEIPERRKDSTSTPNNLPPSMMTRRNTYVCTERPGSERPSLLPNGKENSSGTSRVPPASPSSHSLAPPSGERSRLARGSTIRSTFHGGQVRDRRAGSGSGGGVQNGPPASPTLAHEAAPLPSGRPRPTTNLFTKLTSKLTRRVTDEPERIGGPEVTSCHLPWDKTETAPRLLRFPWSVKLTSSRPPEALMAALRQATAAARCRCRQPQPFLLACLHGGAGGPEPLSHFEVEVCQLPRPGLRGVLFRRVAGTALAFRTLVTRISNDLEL

[2] = Clearance in Sprague-Dawley rat at 1 mL/kg, iv administered through catheter measured after 24 hrs by LC-MS/MS analysis; format: ADME, organism-based; conditions: in vivo
[3] = Volume of distribution in Sprague-Dawley rat at 1 mL/kg, iv administered through catheter or 5 mL/kg administered through gastric gavage measured after 24 hrs by LC-MS/MS analysis; format: ADME, organism-based; conditions: in vivo
[4] = biological target: Insulin-like growth factor 1 receptor (Homo sapiens, UniProt P08069); experiment: Inhibition of recombinant human C-terminal His-tagged cytoplasmic IGF1R (960 to 1397 residues) expressed in baculovirus expression system by Z'-LYTE assay
[5] = biological target: T2, Tyrosine-protein kinase JAK3 (Homo sapiens, UniProt P52333); experiment: Inhibition of recombinant human GST-tagged JAK3 catalytic domain expressed in baculovirus expression system by Z'-LYTE assay
T2 sequence (P52333 whole entry): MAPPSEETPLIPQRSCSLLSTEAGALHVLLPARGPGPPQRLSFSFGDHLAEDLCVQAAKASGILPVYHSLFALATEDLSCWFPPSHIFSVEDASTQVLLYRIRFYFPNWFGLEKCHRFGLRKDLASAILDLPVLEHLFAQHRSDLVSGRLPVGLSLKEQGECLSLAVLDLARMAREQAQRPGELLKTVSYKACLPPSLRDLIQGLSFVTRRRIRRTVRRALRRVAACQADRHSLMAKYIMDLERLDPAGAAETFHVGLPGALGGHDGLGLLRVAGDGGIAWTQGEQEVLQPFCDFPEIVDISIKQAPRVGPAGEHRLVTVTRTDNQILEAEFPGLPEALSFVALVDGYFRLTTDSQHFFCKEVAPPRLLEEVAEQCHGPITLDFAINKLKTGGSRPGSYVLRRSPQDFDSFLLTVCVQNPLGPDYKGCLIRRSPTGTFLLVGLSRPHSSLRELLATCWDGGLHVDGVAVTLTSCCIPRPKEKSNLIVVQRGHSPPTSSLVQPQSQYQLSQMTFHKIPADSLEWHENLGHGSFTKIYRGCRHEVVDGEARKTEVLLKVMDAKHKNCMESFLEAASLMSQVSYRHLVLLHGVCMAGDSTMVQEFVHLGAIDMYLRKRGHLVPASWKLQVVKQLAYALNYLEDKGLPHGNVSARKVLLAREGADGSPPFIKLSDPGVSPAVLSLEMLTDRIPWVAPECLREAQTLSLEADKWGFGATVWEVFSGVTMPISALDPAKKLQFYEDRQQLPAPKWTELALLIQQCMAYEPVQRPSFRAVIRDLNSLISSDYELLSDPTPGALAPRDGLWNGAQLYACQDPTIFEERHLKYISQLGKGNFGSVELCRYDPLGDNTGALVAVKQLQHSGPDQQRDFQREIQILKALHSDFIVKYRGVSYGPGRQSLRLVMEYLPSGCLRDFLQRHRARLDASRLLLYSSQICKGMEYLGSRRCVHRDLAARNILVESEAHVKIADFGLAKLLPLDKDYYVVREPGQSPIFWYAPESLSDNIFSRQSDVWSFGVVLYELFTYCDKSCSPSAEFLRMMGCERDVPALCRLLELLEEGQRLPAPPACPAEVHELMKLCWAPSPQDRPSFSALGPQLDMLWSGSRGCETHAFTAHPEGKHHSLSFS

[6] = biological target: Dual specificity mitogen-activated protein kinase kinase 1 (Homo sapiens, UniProt Q02750); experiment: Inhibition of full-length recombinant human His-tagged MAP2K1 expressed in baculovirus expression system by LanthaScreen assay
[7] = biological target: Serine/threonine-protein kinase Nek6 (Homo sapiens, UniProt Q9HC98); experiment: Inhibition of full-length recombinant human GST-tagged NEK6 expressed in insect cells by Z'-LYTE assay
[8] = biological target: Non-receptor tyrosine-protein kinase TYK2 (Homo sapiens, UniProt P29597); experiment: Inhibition of recombinant human N-terminal GST-tagged cytoplasmic TYK2 (833 to 1187 residues) catalytic domain expressed in baculovirus expression system by Z'-LYTE assay
Chain of Non-receptor tyrosine-protein kinase TYK2 (P29597 whole entry, the tested form may be a part): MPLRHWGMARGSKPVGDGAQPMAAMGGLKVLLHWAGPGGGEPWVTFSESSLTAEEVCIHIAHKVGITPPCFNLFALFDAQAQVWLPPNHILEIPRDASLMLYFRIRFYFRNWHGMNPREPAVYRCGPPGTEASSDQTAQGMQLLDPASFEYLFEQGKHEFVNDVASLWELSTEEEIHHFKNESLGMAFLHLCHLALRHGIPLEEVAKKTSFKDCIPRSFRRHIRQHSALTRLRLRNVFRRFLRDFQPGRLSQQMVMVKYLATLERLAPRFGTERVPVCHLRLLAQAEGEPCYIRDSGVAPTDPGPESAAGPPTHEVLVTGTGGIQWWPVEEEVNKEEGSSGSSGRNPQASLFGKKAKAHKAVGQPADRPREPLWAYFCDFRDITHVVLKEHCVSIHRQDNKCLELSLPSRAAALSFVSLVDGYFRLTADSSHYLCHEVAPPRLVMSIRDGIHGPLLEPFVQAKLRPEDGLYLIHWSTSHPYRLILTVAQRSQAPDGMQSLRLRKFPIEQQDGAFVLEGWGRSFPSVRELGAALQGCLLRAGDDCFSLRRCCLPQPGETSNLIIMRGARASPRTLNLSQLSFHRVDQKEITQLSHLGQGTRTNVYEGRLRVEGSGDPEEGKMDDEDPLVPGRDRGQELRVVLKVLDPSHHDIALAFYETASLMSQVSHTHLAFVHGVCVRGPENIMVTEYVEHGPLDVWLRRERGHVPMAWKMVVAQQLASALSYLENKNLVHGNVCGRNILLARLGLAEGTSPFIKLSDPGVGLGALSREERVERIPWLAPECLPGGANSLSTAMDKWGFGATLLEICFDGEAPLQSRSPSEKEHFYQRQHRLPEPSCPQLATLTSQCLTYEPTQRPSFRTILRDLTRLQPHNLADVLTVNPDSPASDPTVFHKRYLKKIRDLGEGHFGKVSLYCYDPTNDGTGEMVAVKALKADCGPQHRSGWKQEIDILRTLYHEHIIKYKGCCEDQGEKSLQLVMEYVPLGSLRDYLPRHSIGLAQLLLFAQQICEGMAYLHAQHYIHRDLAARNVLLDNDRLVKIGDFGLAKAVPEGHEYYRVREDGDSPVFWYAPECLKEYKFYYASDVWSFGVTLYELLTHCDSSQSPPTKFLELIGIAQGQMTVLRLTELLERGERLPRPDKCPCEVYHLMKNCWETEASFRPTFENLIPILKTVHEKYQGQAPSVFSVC

Chain of Serine/threonine-protein kinase Nek6 (Q9HC98 whole entry, the tested form may be a part): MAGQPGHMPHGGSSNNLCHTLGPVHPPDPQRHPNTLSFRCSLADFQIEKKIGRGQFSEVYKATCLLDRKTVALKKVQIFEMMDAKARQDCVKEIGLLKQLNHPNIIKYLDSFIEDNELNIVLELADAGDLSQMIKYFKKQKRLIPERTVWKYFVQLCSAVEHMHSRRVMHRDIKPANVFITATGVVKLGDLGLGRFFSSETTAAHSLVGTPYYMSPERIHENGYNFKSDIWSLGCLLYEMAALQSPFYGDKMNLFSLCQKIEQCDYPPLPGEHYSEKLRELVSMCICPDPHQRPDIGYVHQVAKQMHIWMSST
Chain of Dual specificity mitogen-activated protein kinase kinase 1 (Q02750 whole entry): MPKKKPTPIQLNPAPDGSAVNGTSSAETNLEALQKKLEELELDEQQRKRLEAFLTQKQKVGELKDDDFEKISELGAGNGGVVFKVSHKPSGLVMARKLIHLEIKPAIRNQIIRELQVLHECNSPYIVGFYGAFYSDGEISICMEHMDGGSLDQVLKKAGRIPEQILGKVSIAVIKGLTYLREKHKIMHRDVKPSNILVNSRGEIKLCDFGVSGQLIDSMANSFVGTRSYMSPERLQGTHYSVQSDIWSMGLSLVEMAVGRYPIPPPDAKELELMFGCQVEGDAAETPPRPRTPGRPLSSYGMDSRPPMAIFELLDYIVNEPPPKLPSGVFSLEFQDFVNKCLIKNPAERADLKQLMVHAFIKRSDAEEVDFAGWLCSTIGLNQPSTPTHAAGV
Chain of Insulin-like growth factor 1 receptor (P08069 31-736 limits assumed): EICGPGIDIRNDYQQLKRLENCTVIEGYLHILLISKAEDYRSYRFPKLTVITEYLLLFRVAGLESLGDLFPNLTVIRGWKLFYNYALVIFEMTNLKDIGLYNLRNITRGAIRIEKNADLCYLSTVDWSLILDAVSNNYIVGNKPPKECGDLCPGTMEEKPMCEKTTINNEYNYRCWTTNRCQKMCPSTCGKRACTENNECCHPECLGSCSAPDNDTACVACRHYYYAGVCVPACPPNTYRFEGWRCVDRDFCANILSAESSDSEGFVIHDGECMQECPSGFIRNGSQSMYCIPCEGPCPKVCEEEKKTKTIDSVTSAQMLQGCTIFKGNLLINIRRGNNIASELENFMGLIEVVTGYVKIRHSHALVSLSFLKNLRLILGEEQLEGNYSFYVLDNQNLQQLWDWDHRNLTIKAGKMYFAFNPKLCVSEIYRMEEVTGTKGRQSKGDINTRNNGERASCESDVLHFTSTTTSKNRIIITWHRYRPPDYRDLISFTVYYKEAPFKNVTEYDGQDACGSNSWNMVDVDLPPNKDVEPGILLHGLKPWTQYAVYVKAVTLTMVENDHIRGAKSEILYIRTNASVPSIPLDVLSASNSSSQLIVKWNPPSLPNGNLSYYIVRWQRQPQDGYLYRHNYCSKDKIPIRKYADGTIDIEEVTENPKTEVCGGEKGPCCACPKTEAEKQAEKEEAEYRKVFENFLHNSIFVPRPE
Chain of Insulin-like growth factor 1 receptor (P08069 741-1367 limits assumed): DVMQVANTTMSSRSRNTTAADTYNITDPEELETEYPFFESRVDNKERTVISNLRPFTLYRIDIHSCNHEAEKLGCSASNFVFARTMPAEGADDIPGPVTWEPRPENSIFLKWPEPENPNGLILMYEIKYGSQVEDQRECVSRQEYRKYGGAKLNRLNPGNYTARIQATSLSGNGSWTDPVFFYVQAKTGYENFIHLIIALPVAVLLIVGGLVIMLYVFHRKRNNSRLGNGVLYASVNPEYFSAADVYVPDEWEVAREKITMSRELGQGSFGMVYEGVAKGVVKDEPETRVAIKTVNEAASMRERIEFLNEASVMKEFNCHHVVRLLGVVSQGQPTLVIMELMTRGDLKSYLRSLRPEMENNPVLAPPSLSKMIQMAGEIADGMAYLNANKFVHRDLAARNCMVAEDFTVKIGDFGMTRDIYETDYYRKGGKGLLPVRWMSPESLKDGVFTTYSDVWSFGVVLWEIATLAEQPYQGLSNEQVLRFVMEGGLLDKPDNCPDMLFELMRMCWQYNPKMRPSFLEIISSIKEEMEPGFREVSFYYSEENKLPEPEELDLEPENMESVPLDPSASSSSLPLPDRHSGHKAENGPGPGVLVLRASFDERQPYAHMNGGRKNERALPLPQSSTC

SMILES | IC50 [1] [µM] | clearance [2] [mL/min/kg] | Vd [3] [L/kg] | IC50 [4] [µM] | IC50 [5] [µM] | IC50 [6] [µM] | IC50 [7] [µM] | IC50 [8] [µM]
Cn1cc(-c2cnc3c(-c4csc(C(=O)NCC(F)(F)F)c4)cnn3c2)cn1 | 0.06 | 7.4 | 0.77 | > 100 | 0.43 | 12 | 5.9 | 0.092
Cc1sc(C(=O)N[C@@H]2[C@H](N)CCCC2(F)F)cc1-c1cnn2cc(Cl)cnc12 | 0.28 | 19 | 1.3 | > 100 | 1.3 | 1.1 | 17 | 10
O=C(NCC(F)(F)F)c1cc(-c2cnn3cc(-c4ccc(OCCN5CCCCC5)cc4)cnc23)cs1 | 0.05 | 32 | 14.2 | > 100 | 0.28 | 7.2 | 8.8 | 0.075
Cn1cc(-c2cnc3c(-c4csc(C(=O)N[C@@H]5CCCC[C@@H]5N)c4)cnn3c2)cn1 (racemic) | 0.002 |  | 29 | 2.8 | 0.033 | 0.12 | 2.6 | 0.052

— ChEMBL document CHEMBL4477252, “Optimization of microtubule affinity regulating kinase (MARK) inhibitors with improved physical properties” (Bioorg Med Chem Lett, 2016)
